In patent publication US5814612A, “Retinol derivatives and uses thereof” (priority 1992, dated 1998):
Read-outs that look alike come from different tables or passages of the source. Each block holds one compound with its values, some of them ahead of it.

Tests used:
B lymphocytes = test: Activity in B lymphocytes; type: cell-based
CD4^+ T lymphocytes = test: Proliferation of anti-CD3 activated CD4+ T lymphocytes; type: cell-based, BALB/c mouse
Text: Growth curves of lymph node T cells depleted of antigen-presenting cells (FIG. 17A) with and without 10^-6 M retinol at 2×10^5 and 5×10^4 cells/well. (FIG. 17B) Dose-responses elicited by different retinoids in cultures of lymph node T cells depleted of antigen-presenting cells. Also shown are the growth curves of CD4^+ (FIG. 17C) and CD8^+ T lymphocytes (FIG. 17D) in the presence of either retinol, 14HRR, human serum or in their absence.
T lymphocytes, purified as described, 5×10^4 /well, were activated with immobilized anti-CD3 antibody in ITLB medium. The indicated amounts of retinoids or human serum were added at initiation of cultures. […] 14HRR was added every 12 hours. DNA synthesis was measured by a 4 hour pulse with tritiated thymidine. SDs were ≤17%.
Mature T cells were obtained from pooled intestinal, axillary, inguinal and submandibular lymph nodes of 4 to 10-week-old BALB/c mice. To fractionate cells into CD4 and CD8 subsets and at the same time remove APC, a combination of adherence and complement lysis was used as follows:
The cell suspension in a volume of 2 ml was applied to a nylon wool column (40) (0.6 g of washed nylon fibers in the barrel of a 10 ml syringe) and incubated at 37° C. for 40 min. […] The success of the enrichment procedures was monitored cytofluorimetrically using FITC-conjugated anti-CD8 and PE-conjugated anti-CD4. […]

[1] = Stability of retinoids in serum-free tissue culture medium; type: in vitro ADME
[2] = tested on: immediate early genes in fibroblasts; test: Expression of immediate early genes in fibroblasts; type: cell-based; details: work to be published elsewhere
[3] = Reversion of 14HRR to retinal; type: in vitro ADME
thymocytes = test: Viable and blast cell counts of thymocytes (trypan blue); type: cell-based, BALB/c mouse
Method: FIG. 14C: BALB/c thymocytes (3×10^6 /ml) were activated with anti-CD3e mAb as FIG. 1A. The total number of viable cells was determined by counting trypan blue-excluding cells, and those of blast cells by counting viable large cells in six replicate wells. Because of the relatively low cell density required in the culture (see FIG. 14A), the numbers reported for blast cells are best estimates.
Thymuses of 3 to 6-week-old BALB/c mice were teased in serum-free RPMI medium supplemented with 1% BSA, 10^-6 M linoleic acid and antibiotics. Depletion of accessory cells was achieved by two cycles of complement-dependent lysis with a mixture of anti-IA^d (5 μg/ml) and anti-IE^d (1:500 diluted ascites fluid). Briefly, cells were incubated on ice for 30 minutes with Ia antibodies, spun down, resuspended in 1:40 diluted rabbit complement, and incubated at 37° C. for 45 minutes. Incubations and two subsequent washes were carried out with RPMI medium containing 1% BSA. Cell viability was evaluated by trypan blue dye exclusion. To determine the extent of depletion of accessory cells, samples were stained with FITC-conjugated anti-Fc receptor antibody and analyzed by flow cytometry on a FACScan instrument (Becton Dickinson). No FcR-bearing cells were detected by this procedure.

5/2 = test: Retinol metabolism, 5/2; type: in vitro ADME, human
Method: (§1) Legend: 2.5×10^6 cells were grown overnight in 5 ml RPMI/10% FBS. The FBS was preincubated at room temperature with 14.4 uCi [^3 H] retinol (NEN) for 4h. The cell pellet was washed twice with PBS. The retinoid were extracted according to MClean et al. 90 and separated on an analytical c18 reverse phase column according to FIG. 7. The DPM were determined using an on-line scintillation counter.

RPMI = test: Retinol metabolism, RPMI (Leukemia ALL); type: in vitro ADME
Method: as §1

ERLD = test: Retinol metabolism, ERLD; type: in vitro ADME
Method: as §1

P388D.1 = test: Retinol metabolism, P388D.1; type: in vitro ADME, mouse
Method: as §1

[4] = cited from earlier work

half-life [1]: ~4 h | half-life ([1]; tissue culture medium, data not shown): 4 h | reversion to retinal [3]: does not revert to retinal
Compound: CC(C=CC=C(C)C(O)CO)=CC=C1C(C)=CCCC1(C)C (centres unmarked) [14HRR, 14-hydroxy-4,14-retro-retinol]
activity relative to all-trans retinol on a concentration basis (B lymphocytes; B cells): 10-30 fold | potency relative to retinol in preventing necrotic cell death (B lymphocytes; concentration basis): 20-40 times | response of CD4+ subset to anti-CD3 (CD4^+ T lymphocytes): responded to the activating signal | expression of immediate early genes [2]: facilitates the expression of immediate early genes in fibroblasts

Ester (% of taken up retinol) (5/2): 24% | P3 (% of taken up retinol) (5/2): 4% | Total cts. (5/2): 5.7 × 10^5 cts. | Ester (% of taken up retinol) (RPMI): 38% | P3 (% of taken up retinol) (RPMI): 2% | Total cts. (RPMI): 1.2 × 10^5 cts. | Ester (% of taken up retinol) (ERLD): 20% | P3 (% of taken up retinol) (ERLD): 9% | Total cts. (ERLD): 2.8 × 10^5 cts. | Ester (% of taken up retinol) (P388D.1): 26% | P3 (% of taken up retinol) (P388D.1): 0.5% | Total cts. (P388D.1): 1.4 × 10^5 cts.
Compound: CC1=C(/C=C/C(C)=C/C=C/C(C)=C/CO)C(C)(C)CCC1 [retinol, all-trans retinol]
T cell activation / blast transformation by agent alone (thymocytes; alone): no discernible T cell activation | viability of thymocyte cultures (thymocytes; retinol by itself): maintain a higher state of viability than anti-CD3e "only" stimulation | half-life ([4]; serum-free cell culture (ref. 32)): < 24 h | half-life ([4]; serum-free tissue culture medium, estimated (ref. 32)): ~24 h
